Experimental data from patent publication US4532255A, “Amidine compounds and anticomplement agent comprising same” (Torii & Co., Ltd., priority 1980, dated 1985).

How the values were obtained:
Trypsin = target: T1, Trypsin (Bos taurus, UniProt P00760); experiment: Anti-trypsin activity (hydrolysis of TAME); assay type: biochemical; settings: for IC50: molar concentration inhibiting 50% of TAME hydrolysis, read-out: Trypsin ID50
T1 sequence (P00760 24-246): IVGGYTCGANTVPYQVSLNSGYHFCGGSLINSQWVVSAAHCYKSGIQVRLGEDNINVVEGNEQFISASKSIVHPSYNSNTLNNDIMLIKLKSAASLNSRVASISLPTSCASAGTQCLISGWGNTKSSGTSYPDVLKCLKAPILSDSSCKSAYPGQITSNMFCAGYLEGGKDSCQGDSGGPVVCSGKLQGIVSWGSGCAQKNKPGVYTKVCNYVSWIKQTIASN
Experimental: (§1) The anti-trypsin, anti-plasmin, anti-kallikrein and anti-thrombin activities were determined according to the method of Muramatsu et al. [M. Muramatsu, T. Onishi, S. Makino, Y. Hayashi and S. Fujii, J. of Biochem., 58, 214 (1965)]. […] The compound No. corresponds to the compound number shown in Examples.

Plasmin = Plasmin (Homo sapiens, UniProt P00747); experiment: Anti-plasmin activity (hydrolysis of TAME); assay type: biochemical; settings: for IC50: molar concentration inhibiting 50% of TAME hydrolysis, read-out: Plasmin ID50; for inhibition at 10 µM: at 1×10^-5 M, read-out: Plasmin percentage inhibition
Experimental: as §1

Thrombin = Thrombin (Homo sapiens, UniProt P00734); experiment: biochemical; settings: for IC50: molar concentration inhibiting 50% of TAME hydrolysis, read-out: Thrombin ID50; for inhibition at 10 µM: at 1×10^-5 M, read-out: Thrombin percentage inhibition
Experimental: The anti-trypsin, anti-plasmin, anti-kallikrein and anti-thrombin activities were determined according to the method of Muramatsu et al. [M. Muramatsu, T. Onishi, S. Makino, Y. Hayashi and S. Fujii, J. of Biochem., 58, 214 (1965)]. The data summarized in Table 1 are expressed in terms of molar concentration (ID50) of the test compound which inhibits 50% of the activity of each enzyme to hydrolyze TAME (tosylalginine methyl ester). The compound No. corresponds to the compound number shown in Examples.

C1r = target: T2, C1r (Homo sapiens, UniProt P00736); experiment: Anti-C1 esterase (C1r) activity (hydrolysis of AAME); assay type: biochemical; settings: for IC50: AAME hydrolysis, read-out: Anti-C1 activity, C1r ID50
T2 sequence (P00736 464-705 limits assumed): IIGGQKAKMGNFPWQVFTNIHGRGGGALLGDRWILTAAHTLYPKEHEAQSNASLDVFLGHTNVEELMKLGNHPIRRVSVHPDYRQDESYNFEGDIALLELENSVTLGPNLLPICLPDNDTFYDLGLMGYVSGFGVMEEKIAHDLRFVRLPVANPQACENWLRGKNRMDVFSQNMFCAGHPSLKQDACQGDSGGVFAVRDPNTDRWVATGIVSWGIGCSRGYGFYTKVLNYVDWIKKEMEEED
T2 sequence (P00736 18-463 partner limits assumed): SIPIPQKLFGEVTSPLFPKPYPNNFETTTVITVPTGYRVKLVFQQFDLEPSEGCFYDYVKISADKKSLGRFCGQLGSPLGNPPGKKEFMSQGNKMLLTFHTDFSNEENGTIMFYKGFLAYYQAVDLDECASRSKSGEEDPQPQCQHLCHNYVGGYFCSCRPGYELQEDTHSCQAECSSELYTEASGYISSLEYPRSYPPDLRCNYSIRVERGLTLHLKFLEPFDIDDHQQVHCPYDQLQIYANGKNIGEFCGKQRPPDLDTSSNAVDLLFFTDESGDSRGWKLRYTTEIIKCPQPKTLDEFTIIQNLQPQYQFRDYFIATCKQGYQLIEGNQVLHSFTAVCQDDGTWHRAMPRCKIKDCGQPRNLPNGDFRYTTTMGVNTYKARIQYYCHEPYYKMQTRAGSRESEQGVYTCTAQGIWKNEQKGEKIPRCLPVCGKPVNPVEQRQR
Experimental: The anti-Cl esterase ([…]) activity was determined according to the method of Okamura et al. [K. Okamura, M. Muramatsu and S. Fujii, Biochem. Biophys.

C1s = target: T3, C1s (Homo sapiens, UniProt P09871); experiment: biochemical; settings: ATEE hydrolysis; read-out: Anti-C1 activity, C1s ID50
T3 sequence (P09871 438-688 limits assumed): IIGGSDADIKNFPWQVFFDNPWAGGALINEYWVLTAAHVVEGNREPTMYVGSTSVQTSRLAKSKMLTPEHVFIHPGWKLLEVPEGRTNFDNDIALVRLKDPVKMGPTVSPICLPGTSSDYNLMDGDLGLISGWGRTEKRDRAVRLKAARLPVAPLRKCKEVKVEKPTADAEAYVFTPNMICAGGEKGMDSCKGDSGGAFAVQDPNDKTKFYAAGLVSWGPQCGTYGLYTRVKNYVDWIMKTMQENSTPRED
T3 sequence (P09871 16-437 partner limits assumed): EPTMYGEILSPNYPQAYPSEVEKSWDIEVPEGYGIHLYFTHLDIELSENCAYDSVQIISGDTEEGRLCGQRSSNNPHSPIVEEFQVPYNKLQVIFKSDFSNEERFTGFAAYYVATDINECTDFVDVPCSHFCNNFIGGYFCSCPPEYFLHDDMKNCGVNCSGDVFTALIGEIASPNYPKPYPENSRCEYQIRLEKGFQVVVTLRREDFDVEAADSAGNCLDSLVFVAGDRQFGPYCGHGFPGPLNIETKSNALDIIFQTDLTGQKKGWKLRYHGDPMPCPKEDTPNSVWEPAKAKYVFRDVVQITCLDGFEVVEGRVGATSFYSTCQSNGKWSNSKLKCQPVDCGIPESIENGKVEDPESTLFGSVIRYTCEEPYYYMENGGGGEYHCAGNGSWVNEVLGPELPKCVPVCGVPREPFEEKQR
Experimental: The anti-Cl esterase (Clr, Cls) activity was determined according to the method of Okamura et al. [K. Okamura, M. Muramatsu and S. Fujii, Biochem. Biophys. […] The figures in Table 2 have the following meanings:
Cls: Molar concentration of the test compound which inhibits 50% of the ability of Cls to hydrolyse ATEE (acetyltyrosin ethyl ester).

[1] = tested on: complement mediated hemolysis; experiment: Inhibition of complement mediated hemolysis; assay type: cell-based
Experimental: The principle of this method is based on the fact that hemolysis is caused by the activation of complement, when the latter is added to a complex (immune complex) of erythrocytes and the antibody thereof. The degree of hemolysis varies in proportion to the amount of complement added. Therefore, when a known amount of complement admixed with a C1 esterase inhibitor is used, the hemolysis must be suppressed in proportion to the inhibitory activity.

Kallikrein = experiment: Anti-kallikrein activity (hydrolysis of TAME); assay type: biochemical; settings: at 1×10^-5 M

Chain of Plasmin (P00747 581-810 limits assumed, species assumed): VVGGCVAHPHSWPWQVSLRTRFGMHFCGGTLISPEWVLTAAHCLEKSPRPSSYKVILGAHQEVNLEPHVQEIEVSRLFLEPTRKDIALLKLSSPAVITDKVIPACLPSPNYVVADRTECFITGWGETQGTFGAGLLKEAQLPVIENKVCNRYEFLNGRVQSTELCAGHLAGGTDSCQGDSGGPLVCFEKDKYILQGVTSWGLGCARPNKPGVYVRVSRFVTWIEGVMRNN
Chain of Plasmin (P00747 97-580 partner limits assumed, species assumed): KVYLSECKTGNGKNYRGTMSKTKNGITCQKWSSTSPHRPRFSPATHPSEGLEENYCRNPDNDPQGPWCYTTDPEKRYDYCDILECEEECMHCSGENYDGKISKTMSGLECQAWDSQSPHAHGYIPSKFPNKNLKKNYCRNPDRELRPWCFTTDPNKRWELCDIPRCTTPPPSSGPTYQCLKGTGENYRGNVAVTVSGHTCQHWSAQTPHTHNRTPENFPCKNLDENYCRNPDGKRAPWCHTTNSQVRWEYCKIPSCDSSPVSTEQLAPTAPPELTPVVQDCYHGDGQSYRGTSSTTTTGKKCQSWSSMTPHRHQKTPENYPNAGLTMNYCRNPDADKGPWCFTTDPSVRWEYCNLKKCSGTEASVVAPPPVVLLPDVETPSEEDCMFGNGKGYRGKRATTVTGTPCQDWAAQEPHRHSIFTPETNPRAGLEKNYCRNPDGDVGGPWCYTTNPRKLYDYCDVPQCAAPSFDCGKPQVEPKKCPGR

SMILES	IC50 (Trypsin) [nM]	IC50 (Plasmin) [nM]	IC50 (Thrombin) [nM]	IC50 (C1r) [nM]	IC50 (C1s) [nM]	Inhibition of complement mediated hemolysis (%) ([1]; 1 × 10^-4)	Inhibition of complement mediated hemolysis (%) ([1]; 1 × 10^-5)	Inhibition of complement mediated hemolysis (%) ([1]; 1 × 10^-6)	Inhibition of complement mediated hemolysis (%) ([1]; 1 × 10^-7)	Kallikrein percentage inhibition (Kallikrein) [%]	inhibition at 10 µM (Plasmin) [%]	inhibition at 10 µM (Thrombin) [%]	inhibition at 10 µM (C1r; at 1×10^-5 M, read-out: Anti-C1 activity, C1r percent inhibition) [%]	inhibition at 10 µM (Trypsin; at 1×10^-5 M, read-out: Trypsin percentage inhibition) [%]
N=C(N)c1ccc2cc(OC(=O)c3ccc4c(c3)OCO4)ccc2c1 [Compound 10]	200	50000	4000	200	200	97	75	9	2	31	–	–	–	–
N=C(N)c1ccc2cc(OC(=O)c3ccc(O)cc3)ccc2c1 [Compound 11, 6-amidino-2-naphthyl 4-hydroxybenzoate]	300	–	7000	100	200	96	56	6	13	21	36	–	–	–
CC(=O)Oc1ccc(C(=O)Oc2ccc3cc(C(=N)N)ccc3c2)cc1 [Compound 13]	400	2000	–	300	300	94	42	5	4	24	–	39	–	–
N=C(N)c1ccc2cc(OC(=O)c3ccc(Cl)cc3)ccc2c1 [Compound 16]	3000	500	–	–	400	99	77	24	10	31	–	38	39	–
N#Cc1ccc(C(=O)Oc2ccc3cc(C(=N)N)ccc3c2)cc1 [Compound 19]	–	3000	2000	4000	8000	98	86	22	1	11	–	–	–	47
N=C(N)c1ccc2cc(OC(=O)c3ccc(N)cc3)ccc2c1 [Compound 20, 6-amidino-2-naphthyl 4-aminobenzoate]	60	–	> 10000	200	200	95	46	5	0	31	27	–	–	–
CN(C(=N)N)c1ccc(C(=O)Oc2ccc3cc(C(=N)N)ccc3c2)cc1 [Compound 28, 6-amidino-2-naphthyl 4-(Nα-methyl)guanidinobenzoate]	600	600	–	3000	300	100	99	60	6	20	–	17	–	–
CSc1ccc(C(=O)Oc2ccc3cc(C(=N)N)ccc3c2)cc1 [Compound 30]	2000	2000	4000	500	300	14	90	40	6	41	–	–	–	–
CC(=O)c1ccc(C(=O)Oc2ccc3cc(C(=N)N)ccc3c2)cc1 [Compound 32]	2000	3000	4000	2000	3000	93	97	67	22	26	–	–	–	–
N=C(N)c1ccc2cc(OC(=O)c3cccc(C(F)(F)F)c3)ccc2c1 [Compound 33]	8000	3000	–	1000	3000	75	39	7	22	13	–	40	–	–
